{"source": "patent US20180325914A1", "about": "“INCREASING STORAGE OF VITAMIN A, VITAMIN D AND/OR LIPIDS” (Salk Institute for Biological Studies, priority 2014, published 2018)", "tested_on": "primary HSCs", "conditions": "mRNA-Seq expression", "data": [{"smiles": "Cc1sc2c(c1C)C(c1ccc(Cl)cc1)=N[C@@H](CC(=O)OC(C)(C)C)c1nnc(C)n1-2", "note": "[JQ1, (S)-tert-butyl 2-(4-(4-chlorophenyl)-2,3,9-trimethyl-6H-thieno[3,2-f][1,2,4]triazolo[4,3-a][1,4]diazepin-6-yl)acetate]", "values": [{"measurement": "value_2, gene Kcnab1", "setting": "Day_6_JQ1", "value": 5.987}, {"measurement": "value_2, gene Kctd11", "setting": "Day_6_JQ1", "value": 40.3428}, {"measurement": "value_2, gene Kidins220", "setting": "Day_6_JQ1", "value": 34.7188}, {"measurement": "value_2, gene Lamb1", "setting": "Day_6_JQ1", "value": 116.83}, {"measurement": "value_2, gene Large", "setting": "Day_6_JQ1", "value": 40.5667}, {"measurement": "value_2, gene Lass6", "setting": "Day_6_JQ1", "value": 16.8557}, {"measurement": "value_2, gene Lbh", "setting": "Day_6_JQ1", "value": 311.939}, {"measurement": "value_2, gene Lrp1", "setting": "Day_6_JQ1", "value": 247.494}, {"measurement": "value_2, gene Lynx1", "setting": "Day_6_JQ1", "value": 16.3298}, {"measurement": "value_2, gene Maged1", "setting": "Day_6_JQ1", "value": 209.848}, {"measurement": "value_2, gene Map1lc3a", "setting": "Day_6_JQ1", "value": 83.7075}, {"measurement": "value_2, gene Marveld1", "setting": "Day_6_JQ1", "value": 50.0393}, {"measurement": "value_2, gene Mmab", "setting": "Day_6_JQ1", "value": 8.1326}, {"measurement": "value_2, gene Morc4", "setting": "Day_6_JQ1", "value": 8.504}, {"measurement": "value_2, gene Mpp6", "setting": "Day_6_JQ1", "value": 75.1224}, {"measurement": "value_2, gene Mxra8", "setting": "Day_6_JQ1", "value": 126.008}, {"measurement": "value_2, gene Mypop", "setting": "Day_6_JQ1", "value": 8.4789}, {"measurement": "value_2, gene Nans", "setting": "Day_6_JQ1", "value": 59.0594}, {"measurement": "value_2, gene Ngfrap1", "setting": "Day_6_JQ1", "value": 196.152}, {"measurement": "value_2, gene Nxn", "setting": "Day_6_JQ1", "value": 73.7521}, {"measurement": "value_2, gene Ogn", "setting": "Day_6_JQ1", "value": 68.5101}, {"measurement": "value_2, gene Olfml3", "setting": "Day_6_JQ1", "value": 169.404}, {"measurement": "value_2, gene Oxct1", "setting": "Day_6_JQ1", "value": 46.8229}, {"measurement": "value_2, gene Palm", "setting": "Day_6_JQ1", "value": 43.4603}, {"measurement": "value_2, gene Parva", "setting": "Day_6_JQ1", "value": 84.643}, {"measurement": "value_2, gene Pbxip1", "setting": "Day_6_JQ1", "value": 66.9739}, {"measurement": "value_2, gene Pcbp4", "setting": "Day_6_JQ1", "value": 31.1679}, {"measurement": "value_2, gene Pde5a", "setting": "Day_6_JQ1", "value": 4.315}, {"measurement": "value_2, gene Pdk3", "setting": "Day_6_JQ1", "value": 17.7734}, {"measurement": "value_2, gene Pdlim5", "setting": "Day_6_JQ1", "value": 120.722}, {"measurement": "value_2, gene Pdrg1", "setting": "Day_6_JQ1", "value": 77.2251}, {"measurement": "value_2, gene Pdzrn3", "setting": "Day_6_JQ1", "value": 35.4736}, {"measurement": "value_2, gene Pgp", "setting": "Day_6_JQ1", "value": 55.4841}, {"measurement": "value_2, gene Pgrmc1", "setting": "Day_6_JQ1", "value": 110.711}, {"measurement": "value_2, gene Plcxd2", "setting": "Day_6_JQ1", "value": 8.321}, {"measurement": "value_2, gene Plk4", "setting": "Day_6_JQ1", "value": 7.27}, {"measurement": "value_2, gene Ppic", "setting": "Day_6_JQ1", "value": 178.683}, {"measurement": "value_2, gene Pqlc3", "setting": "Day_6_JQ1", "value": 21.232}, {"measurement": "value_2, gene Prdx4", "setting": "Day_6_JQ1", "value": 90.3086}, {"measurement": "value_2, gene Prkab2", "setting": "Day_6_JQ1", "value": 26.0507}, {"measurement": "value_2, gene Prr11", "setting": "Day_6_JQ1", "value": 6.831}, {"measurement": "value_2, gene Prrx1", "setting": "Day_6_JQ1", "value": 33.6888}, {"measurement": "value_2, gene Ptk7", "setting": "Day_6_JQ1", "value": 33.1681}, {"measurement": "value_2, gene Ptprs", "setting": "Day_6_JQ1", "value": 25.6268}, {"measurement": "value_2, gene Rab11fip5", "setting": "Day_6_JQ1", "value": 18.6008}, {"measurement": "value_2, gene Rbfox2", "setting": "Day_6_JQ1", "value": 31.4181}, {"measurement": "value_2, gene Rbms3", "setting": "Day_6_JQ1", "value": 14.5408}, {"measurement": "value_2, gene Rhou", "setting": "Day_6_JQ1", "value": 27.2789}, {"measurement": "value_2, gene Rrm1", "setting": "Day_6_JQ1", "value": 37.9825}, {"measurement": "value_2, gene Rsu1", "setting": "Day_6_JQ1", "value": 115.627}, {"measurement": "value_2, gene Sepn1", "setting": "Day_6_JQ1", "value": 53.0761}, {"measurement": "value_2, gene Shisa4", "setting": "Day_6_JQ1", "value": 29.5421}, {"measurement": "value_2, gene Sidt2", "setting": "Day_6_JQ1", "value": 85.8124}, {"measurement": "value_2, gene Sil1", "setting": "Day_6_JQ1", "value": 25.0211}, {"measurement": "value_2, gene Smpd1", "setting": "Day_6_JQ1", "value": 40.8765}, {"measurement": "value_2, gene Snx7", "setting": "Day_6_JQ1", "value": 31.6545}, {"measurement": "value_2, gene Sparc", "setting": "Day_6_JQ1", "value": 3945.98}, {"measurement": "value_2, gene St3gal2", "setting": "Day_6_JQ1", "value": 27.017}, {"measurement": "value_2, gene St6galnac6", "setting": "Day_6_JQ1", "value": 21.1878}, {"measurement": "value_2, gene Ston1", "setting": "Day_6_JQ1", "value": 80.759}, {"measurement": "value_2, gene Suox", "setting": "Day_6_JQ1", "value": 13.7986}, {"measurement": "value_2, gene Synpo", "setting": "Day_6_JQ1", "value": 128.3}, {"measurement": "value_2, gene Tln2", "setting": "Day_6_JQ1", "value": 10.7793}, {"measurement": "value_2, gene Tmem176b", "setting": "Day_6_JQ1", "value": 232.156}, {"measurement": "value_2, gene Tubb2a", "setting": "Day_6_JQ1", "value": 56.747}, {"measurement": "value_2, gene Tulp4", "setting": "Day_6_JQ1", "value": 15.6577}, {"measurement": "value_2, gene Tyms", "setting": "Day_6_JQ1", "value": 9.8}, {"measurement": "value_2, gene Unc5b", "setting": "Day_6_JQ1", "value": 142.372}, {"measurement": "value_2, gene Vcl", "setting": "Day_6_JQ1", "value": 188.104}, {"measurement": "value_2, gene Wbp5", "setting": "Day_6_JQ1", "value": 336.924}, {"measurement": "value_2, gene Zfp449", "setting": "Day_6_JQ1", "value": 5.689}, {"measurement": "4833442J19Rik value_2 (Day_6_JQ1)", "setting": "primary HSCs, day 6 with JQ1", "value": 5.928}, {"measurement": "4930583H14Rik value_2 (Day_6_JQ1)", "setting": "primary HSCs, day 6 with JQ1", "value": 0.6572}, {"measurement": "AA467197 value_2 (Day_6_JQ1)", "setting": "primary HSCs, day 6 with JQ1", "value": 1.792}, {"measurement": "AI427809 value_2 (Day_6_JQ1)", "setting": "primary HSCs, day 6 with JQ1", "value": 0.3782}, {"measurement": "Acta1 value_2 (Day_6_JQ1)", "setting": "primary HSCs, day 6 with JQ1", "value": 5.299}, {"measurement": "Actg2 value_2 (Day_6_JQ1)", "setting": "primary HSCs, day 6 with JQ1", "value": 9.747}, {"measurement": "Adamtsl2 value_2 (Day_6_JQ1)", "setting": "primary HSCs, day 6 with JQ1", "value": 0.6746}, {"measurement": "Ak4 value_2 (Day_6_JQ1)", "setting": "primary HSCs, day 6 with JQ1", "value": 2.207}, {"measurement": "Alox5ap value_2 (Day_6_JQ1)", "setting": "primary HSCs, day 6 with JQ1", "value": 1.8396}, {"measurement": "Angpt4 value_2 (Day_6_JQ1)", "setting": "primary HSCs, day 6 with JQ1", "value": 2.216}, {"measurement": "Aoc3 value_2 (Day_6_JQ1)", "setting": "primary HSCs, day 6 with JQ1", "value": 0.7708}, {"measurement": "Atp1a3 value_2 (Day_6_JQ1)", "setting": "primary HSCs, day 6 with JQ1", "value": 1.07}, {"measurement": "Bcat1 value_2 (Day_6_JQ1)", "setting": "primary HSCs, day 6 with JQ1", "value": 1.171}, {"measurement": "C1qtnf2 value_2 (Day_6_JQ1)", "setting": "primary HSCs, day 6 with JQ1", "value": 1.262}, {"measurement": "C1qtnf5 value_2 (Day_6_JQ1)", "setting": "primary HSCs, day 6 with JQ1", "value": 5.303}, {"measurement": "Cck value_2 (Day_6_JQ1)", "setting": "primary HSCs, day 6 with JQ1", "value": 0.3139}, {"measurement": "Ccl12 value_2 (Day_6_JQ1)", "setting": "primary HSCs, day 6 with JQ1", "value": 0.2748}, {"measurement": "Cdh3 value_2 (Day_6_JQ1)", "setting": "primary HSCs, day 6 with JQ1", "value": 1.477}, {"measurement": "Cdh6 value_2 (Day_6_JQ1)", "setting": "primary HSCs, day 6 with JQ1", "value": 0.764}, {"measurement": "Chd3 value_2 (Day_6_JQ1)", "setting": "primary HSCs, day 6 with JQ1", "value": 4.386}, {"measurement": "Chst11 value_2 (Day_6_JQ1)", "setting": "primary HSCs, day 6 with JQ1", "value": 22.6881}, {"measurement": "Cnn1 value_2 (Day_6_JQ1)", "setting": "primary HSCs, day 6 with JQ1", "value": 5.628}, {"measurement": "Col6a2 value_2 (Day_6_JQ1)", "setting": "primary HSCs, day 6 with JQ1", "value": 6.3149}, {"measurement": "Col6a3 value_2 (Day_6_JQ1)", "setting": "primary HSCs, day 6 with JQ1", "value": 7.234}, {"measurement": "Col7a1 value_2 (Day_6_JQ1)", "setting": "primary HSCs, day 6 with JQ1", "value": 0.5444}, {"measurement": "Col11a1 value_2 (Day_6_JQ1)", "setting": "primary HSCs, day 6 with JQ1", "value": 4.303}, {"measurement": "Col15a1 value_2 (Day_6_JQ1)", "setting": "primary HSCs, day 6 with JQ1", "value": 0.2832}, {"measurement": "Csdc2 value_2 (Day_6_JQ1)", "setting": "primary HSCs, day 6 with JQ1", "value": 0.913}, {"measurement": "Cthrc1 value_2 (Day_6_JQ1)", "setting": "primary HSCs, day 6 with JQ1", "value": 4.104}, {"measurement": "D430019H16Rik value_2 (Day_6_JQ1)", "setting": "primary HSCs, day 6 with JQ1", "value": 1.971}, {"measurement": "Def6 value_2 (Day_6_JQ1)", "setting": "primary HSCs, day 6 with JQ1", "value": 0.8624}, {"measurement": "Des value_2 (Day_6_JQ1)", "setting": "primary HSCs, day 6 with JQ1", "value": 14.4745}, {"measurement": "Dkk2 value_2 (Day_6_JQ1)", "setting": "primary HSCs, day 6 with JQ1", "value": 0.918}, {"measurement": "Dok5 value_2 (Day_6_JQ1)", "setting": "primary HSCs, day 6 with JQ1", "value": 1.203}, {"measurement": "Dpep1 value_2 (Day_6_JQ1)", "setting": "primary HSCs, day 6 with JQ1", "value": 0.6357}]}]}
